According to patent US20260166128A1, “HUMAN AMYLIN ANALOG, AND DERIVATIVE THEREOF AND USE THEREOF” (priority 2022, published 2026):
Numbered stars: 1 amine (or outer) side, 2 acyl side, 3 side chain; on linkers, the order of the positions; unused ones are H or OH. Bridge positions count the residues as written; N and C are the ends. Square brackets hold non-standard residues; d marks the D form. Side chains are listed from the residue outwards. Peptide text beside a SMILES is read from it. * marks the point of attachment. C20 diacid = O=C(O)CCCCCCCCCCCCCCCCCCC(=O)*; C18 diacid = O=C(O)CCCCCCCCCCCCCCCCC(=O)*; γGlu = O=C(O)[C@H](CCC(=O)[*:2])N[*:1]; Hyp = O=C(O)[C@@H]1C[C@@H](O)CN1; Orn = NCCC[C@H](N)C(=O)O; AEEA = NCCOCCOCC(=O)O; Sar = CNCC(=O)O

What follows are compounds tested against T1, human amylin receptor (Homo sapiens, UniProt O60896+P30988) (assay: Luciferase assay of amylin derivatives in amylin receptor/CRE-luc CHO cell line). Details: CHO-K1/Ga15/AMY3 CRE-luc cells, 24 hours incubation, F12 medium containing 10% FBS; read-out: EC50.
T1 construct: host or cells: CHO-K1/Ga15/AMY3 cells, further stably transfected with a CRE-luciferase plasmid
T1 sequence (P30988 25-474): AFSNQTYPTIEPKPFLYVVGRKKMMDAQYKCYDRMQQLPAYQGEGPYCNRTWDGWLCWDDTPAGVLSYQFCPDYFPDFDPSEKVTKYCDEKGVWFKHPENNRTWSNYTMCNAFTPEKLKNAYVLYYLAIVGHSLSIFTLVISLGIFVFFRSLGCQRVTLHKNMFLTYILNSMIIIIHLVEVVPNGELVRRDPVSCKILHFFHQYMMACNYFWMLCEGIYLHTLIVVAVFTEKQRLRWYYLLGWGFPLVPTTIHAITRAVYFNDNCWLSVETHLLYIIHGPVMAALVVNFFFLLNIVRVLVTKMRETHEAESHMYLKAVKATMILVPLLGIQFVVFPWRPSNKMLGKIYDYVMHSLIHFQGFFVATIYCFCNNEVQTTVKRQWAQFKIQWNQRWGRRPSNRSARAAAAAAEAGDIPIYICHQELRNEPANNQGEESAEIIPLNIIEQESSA
T1 sequence (O60896 24-148 partner): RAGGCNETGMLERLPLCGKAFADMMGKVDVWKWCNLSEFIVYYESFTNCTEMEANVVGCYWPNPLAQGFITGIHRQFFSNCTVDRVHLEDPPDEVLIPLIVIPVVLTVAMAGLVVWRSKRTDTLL
Type: cell-based
Procedure: The experiment was intended to detect the activity or efficacy of the amylin derivatives on a human amylin receptor in vitro by luciferase assay.
50 μL of growth medium (F12 medium containing 10% FBS) was added into each well of a white 96-well plate, and the stably transfected amylin/CRE-lue CHO cells were inoculated into the white 96-well plate at a density of about 20,000 cells/well for activity determination.

| SMILES | EC50 [pM] |
| --- | --- |
| CC[C@H](C)[C@H](NC(=O)[C@@H]1CCCN1C(=O)CN(C)C(=O)[C@H](CC(C)C)NC(=O)[C@H](CC(N)=O)NC(=O)[C@H](CC(N)=O)NC(=O)[C@H](CO)NC(=O)[C@H](CO)NC(=O)[C@H](Cc1c[nH]cn1)NC(=O)[C@H](CCCNC(=N)N)NC(=O)[C@H](CC(C)C)NC(=O)[C@H](Cc1ccccc1)NC(=O)[C@H](CC(=O)O)NC(=O)[C@H](C)NC(=O)[C@H](CC(C)C)NC(=O)[C@H](CCCNC(=N)N)NC(=O)[C@H](CCC(N)=O)NC(=O)[C@@H](NC(=O)[C@H](C)NC(=O)[C@@H]1CSSC[C@H](NC(=O)[C@H](CCCCN)NC(=O)CC[C@H](NC(=O)CCCCCCCCCCCCCCCCCCC(=O)O)C(=O)O)C(=O)N[C@@H](CC(N)=O)C(=O)N[C@@H]([C@@H](C)O)C(=O)N[C@@H](C)C(=O)N[C@@H]([C@@H](C)O)C(=O)N1)[C@@H](C)O)C(=O)N[C@@H](CC(C)C)C(=O)N1CCC[C@H]1C(=O)N1CCC[C@H]1C(=O)N[C@H](C(=O)N[C@@H](CC(N)=O)C(=O)N[C@H](C(=O)NCC(=O)N[C@@H](CO)C(=O)N[C@@H](CC(N)=O)C(=O)N[C@H](C(=O)N1CCC[C@H]1C(N)=O)[C@@H](C)O)C(C)C)[C@@H](C)O [PD172] ({C20 diacid-γGlu}-KCNTATCATQRLADFLRHSSNNL[Sar]PILPPTNVGSNTP-NH2; disulfide 2-7 (inferred)) | 75 |
| CC[C@H](C)[C@H](NC(=O)[C@@H]1CCCN1C(=O)[C@H](CC(=O)O)NC(=O)[C@H](CC(C)C)NC(=O)[C@H](CC(N)=O)NC(=O)[C@H](CC(N)=O)NC(=O)[C@H](CO)NC(=O)[C@H](CO)NC(=O)[C@H](Cc1c[nH]cn1)NC(=O)[C@H](CCCNC(=N)N)NC(=O)[C@H](CC(C)C)NC(=O)[C@H](Cc1ccccc1)NC(=O)[C@H](CC(=O)O)NC(=O)[C@H](C)NC(=O)[C@H](CC(C)C)NC(=O)[C@H](CCCNC(=N)N)NC(=O)[C@H](CCC(N)=O)NC(=O)[C@@H](NC(=O)[C@H](C)NC(=O)[C@@H]1CSSC[C@H](NC(=O)[C@H](CCCCN)NC(=O)CC[C@H](NC(=O)CCCCCCCCCCCCCCCCCCC(=O)O)C(=O)O)C(=O)N[C@@H](CC(N)=O)C(=O)N[C@@H]([C@@H](C)O)C(=O)N[C@@H](C)C(=O)N[C@@H]([C@@H](C)O)C(=O)N1)[C@@H](C)O)C(=O)N[C@@H](CC(C)C)C(=O)N1CCC[C@H]1C(=O)N1CCC[C@H]1C(=O)N[C@H](C(=O)N[C@@H](CC(N)=O)C(=O)N[C@H](C(=O)NCC(=O)N[C@@H](CO)C(=O)N[C@@H](CC(N)=O)C(=O)N[C@H](C(=O)N1CCC[C@H]1C(N)=O)[C@@H](C)O)C(C)C)[C@@H](C)O [PD164] ({C20 diacid-γGlu}-KCNTATCATQRLADFLRHSSNNLDPILPPTNVGSNTP-NH2; disulfide 2-7 (inferred)) | 111 |
| CC[C@H](C)[C@H](NC(=O)[C@@H]1CCCN1C(=O)[C@H](CO)NC(=O)[C@H](CC(C)C)NC(=O)[C@H](CC(N)=O)NC(=O)[C@H](CC(N)=O)NC(=O)[C@H](CO)NC(=O)[C@H](CO)NC(=O)[C@H](Cc1c[nH]cn1)NC(=O)[C@H](CCCNC(=N)N)NC(=O)[C@H](CC(C)C)NC(=O)[C@H](Cc1ccccc1)NC(=O)[C@H](CC(=O)O)NC(=O)[C@H](C)NC(=O)[C@H](CC(C)C)NC(=O)[C@H](CCCNC(=N)N)NC(=O)[C@H](CCC(N)=O)NC(=O)[C@@H](NC(=O)[C@H](C)NC(=O)[C@@H]1CSSC[C@H](NC(=O)[C@H](CCCCN)NC(=O)CC[C@H](NC(=O)CCCCCCCCCCCCCCCCCCC(=O)O)C(=O)O)C(=O)N[C@@H](CC(N)=O)C(=O)N[C@@H]([C@@H](C)O)C(=O)N[C@@H](C)C(=O)N[C@@H]([C@@H](C)O)C(=O)N1)[C@@H](C)O)C(=O)N[C@@H](CC(C)C)C(=O)N1CCC[C@H]1C(=O)N1CCC[C@H]1C(=O)N[C@H](C(=O)N[C@@H](CC(N)=O)C(=O)N[C@H](C(=O)NCC(=O)N[C@@H](CO)C(=O)N[C@@H](CC(N)=O)C(=O)N[C@H](C(=O)N1CCC[C@H]1C(N)=O)[C@@H](C)O)C(C)C)[C@@H](C)O [PD166] ({C20 diacid-γGlu}-KCNTATCATQRLADFLRHSSNNLSPILPPTNVGSNTP-NH2; disulfide 2-7 (inferred)) | 54 |
| CC[C@H](C)[C@H](NC(=O)[C@@H]1CCCN1C(=O)[C@H](CCCCN)NC(=O)[C@H](CC(C)C)NC(=O)[C@H](CC(N)=O)NC(=O)[C@H](CC(N)=O)NC(=O)[C@H](CO)NC(=O)[C@H](CO)NC(=O)[C@H](Cc1c[nH]cn1)NC(=O)[C@H](CCCNC(=N)N)NC(=O)[C@H](CC(C)C)NC(=O)[C@H](Cc1ccccc1)NC(=O)[C@H](CC(=O)O)NC(=O)[C@H](C)NC(=O)[C@H](CC(C)C)NC(=O)[C@H](CCCNC(=N)N)NC(=O)[C@H](CCC(N)=O)NC(=O)[C@@H](NC(=O)[C@H](C)NC(=O)[C@@H]1CSSC[C@H](NC(=O)[C@H](CCCCN)NC(=O)[C@H](CC(=O)O)NC(=O)COCCOCCNC(=O)COCCOCCNC(=O)CCCCCCCCCCCCCCCCCCC(=O)O)C(=O)N[C@@H](CC(N)=O)C(=O)N[C@@H]([C@@H](C)O)C(=O)N[C@@H](C)C(=O)N[C@@H]([C@@H](C)O)C(=O)N1)[C@@H](C)O)C(=O)N[C@@H](CC(C)C)C(=O)N1CCC[C@H]1C(=O)N1CCC[C@H]1C(=O)N[C@H](C(=O)N[C@@H](CC(N)=O)C(=O)N[C@H](C(=O)NCC(=O)N[C@@H](CO)C(=O)N[C@@H](CC(N)=O)C(=O)N[C@H](C(=O)N1CCC[C@H]1C(N)=O)[C@@H](C)O)C(C)C)[C@@H](C)O [PD194] ({C20 diacid-AEEA-AEEA}-DKCNTATCATQRLADFLRHSSNNLKPILPPTNVGSNTP-NH2; disulfide 3-8 (inferred)) | 74 |

Stronger by EC50, values ahead:

| EC50 [pM] | SMILES |
| --- | --- |
| 41 | CC[C@H](C)[C@H](NC(=O)[C@@H]1CCCN1C(=O)[C@H](CCCN)NC(=O)[C@H](CC(C)C)NC(=O)[C@H](CC(N)=O)NC(=O)[C@H](CC(N)=O)NC(=O)[C@H](CO)NC(=O)[C@H](CO)NC(=O)[C@H](Cc1c[nH]cn1)NC(=O)[C@H](CCCNC(=N)N)NC(=O)[C@H](CC(C)C)NC(=O)[C@H](Cc1ccccc1)NC(=O)[C@H](CC(=O)O)NC(=O)[C@H](C)NC(=O)[C@H](CC(C)C)NC(=O)[C@H](CCCNC(=N)N)NC(=O)[C@H](CCC(N)=O)NC(=O)[C@@H](NC(=O)[C@H](C)NC(=O)[C@@H]1CSSC[C@H](NC(=O)[C@H](CCCCN)NC(=O)CC[C@H](NC(=O)CCCCCCCCCCCCCCCCCCC(=O)O)C(=O)O)C(=O)N[C@@H](CC(N)=O)C(=O)N[C@@H]([C@@H](C)O)C(=O)N[C@@H](C)C(=O)N[C@@H]([C@@H](C)O)C(=O)N1)[C@@H](C)O)C(=O)N[C@@H](CC(C)C)C(=O)N1CCC[C@H]1C(=O)N1CCC[C@H]1C(=O)N[C@H](C(=O)N[C@@H](CC(N)=O)C(=O)N[C@H](C(=O)NCC(=O)N[C@@H](CO)C(=O)N[C@@H](CC(N)=O)C(=O)N[C@H](C(=O)N1CCC[C@H]1C(N)=O)[C@@H](C)O)C(C)C)[C@@H](C)O [PD170] ({C20 diacid-γGlu}-KCNTATCATQRLADFLRHSSNNL[Orn]PILPPTNVGSNTP-NH2; disulfide 2-7 (inferred)) |
| 28 | CC[C@H](C)[C@H](NC(=O)[C@@H]1CCCN1C(=O)[C@H](CCCCN)NC(=O)[C@H](CC(C)C)NC(=O)[C@H](CC(N)=O)NC(=O)[C@H](CC(N)=O)NC(=O)[C@H](CO)NC(=O)[C@H](CO)NC(=O)[C@H](Cc1c[nH]cn1)NC(=O)[C@H](CCCNC(=N)N)NC(=O)[C@H](CC(C)C)NC(=O)[C@H](Cc1ccccc1)NC(=O)[C@H](CC(=O)O)NC(=O)[C@H](C)NC(=O)[C@H](CC(C)C)NC(=O)[C@H](CCCNC(=N)N)NC(=O)[C@H](CCC(N)=O)NC(=O)[C@@H](NC(=O)[C@H](C)NC(=O)[C@@H]1CSSC[C@H](NC(=O)[C@H](CCCCN)NC(=O)CC[C@H](NC(=O)CCCCCCCCCCCCCCCCCCC(=O)O)C(=O)O)C(=O)N[C@@H](CC(N)=O)C(=O)N[C@@H]([C@@H](C)O)C(=O)N[C@@H](C)C(=O)N[C@@H]([C@@H](C)O)C(=O)N1)[C@@H](C)O)C(=O)N[C@@H](CC(C)C)C(=O)N1CCC[C@H]1C(=O)N1CCC[C@H]1C(=O)N[C@H](C(=O)N[C@@H](CC(N)=O)C(=O)N[C@H](C(=O)NCC(=O)N[C@@H](CO)C(=O)N[C@@H](CC(N)=O)C(=O)N[C@H](C(=O)N1C[C@H](O)C[C@H]1C(N)=O)[C@@H](C)O)C(C)C)[C@@H](C)O [PD071] ({C20 diacid-γGlu}-KCNTATCATQRLADFLRHSSNNLKPILPPTNVGSNT[Hyp]-NH2; disulfide 2-7 (inferred)) |
| 17 | CC[C@H](C)[C@H](NC(=O)[C@@H]1CCCN1C(=O)CNC(=O)[C@H](CC(C)C)NC(=O)[C@H](CCCCNC(=O)COCCOCCNC(=O)CC[C@H](NC(=O)CCCCCCCCCCCCCCCCC(=O)O)C(=O)O)NC(=O)[C@H](CC(N)=O)NC(=O)[C@H](CO)NC(=O)[C@H](CO)NC(=O)[C@H](Cc1c[nH]cn1)NC(=O)[C@H](CCCNC(=N)N)NC(=O)[C@H](CC(C)C)NC(=O)[C@H](Cc1ccccc1)NC(=O)[C@H](CC(=O)O)NC(=O)[C@H](C)NC(=O)[C@H](CC(C)C)NC(=O)[C@H](CCCNC(=N)N)NC(=O)[C@H](CCC(N)=O)NC(=O)[C@@H](NC(=O)[C@H](C)NC(=O)[C@@H]1CSSC[C@H](NC(=O)[C@@H](N)CCCNC(=N)N)C(=O)N[C@@H](CC(N)=O)C(=O)N[C@@H]([C@@H](C)O)C(=O)N[C@@H](C)C(=O)N[C@@H]([C@@H](C)O)C(=O)N1)[C@@H](C)O)C(=O)N[C@@H](CC(C)C)C(=O)N1CCC[C@H]1C(=O)N1CCC[C@H]1C(=O)N[C@H](C(=O)N[C@@H](CC(N)=O)C(=O)N[C@H](C(=O)NCC(=O)N[C@@H](CO)C(=O)N[C@@H](CC(N)=O)C(=O)N[C@H](C(=O)N1C[C@H](O)C[C@H]1C(N)=O)[C@@H](C)O)C(C)C)[C@@H](C)O [PD113] (H-RCNTATCATQRLADFLRHSSNK([AEEA-γGlu-C18 diacid])LGPILPPTNVGSNT[Hyp]-NH2; disulfide 2-7) |
